Data on 11 compounds can be found in US4804681A, “Metal complexes having an antineoplastic action and medicaments containing these complexes” (priority 1980, dated 1989).

Data set [1] concerns sarcoma 180 tumor cells. The data set can be described thus: Sarcoma 180 tumor model (i.p.), median survival time T/C. It counts as in vivo, female NMRI mice. The following applies: for T/C (median survival time) / cure rate (cured animals/treated animals): single dose. How it is done: 1. Sarcoma 180 tumor model
In each case about 10^6 sarcoma 180 tumor cells in 0.2 ml of physiological saline solution are transferred intraperitoneally (I.P.) to female NMRI mice which are about 6 weeks old and weigh 18 to 20 g. The tumor is kept in passage in the same mouse strain. The tumor cells are removed from freshly killed animals immediately before transplantation. On inoculation, the animals are randomized. 6 mice are used per dosage. Cisplatin and cyclophosphamide are used as the control substances. The number of control groups (untreated animals) is chosen such that it corresponds to about the square root of the total number of groups. The substances are injected intraperitoneally, in each case 24 hours after the transplantation, as suspensions in customary solubilizing agents, such as Tween® (polyoxyethylene derivatives of sorbitan esters).
The stated dose was administered once at the start of the experiment, as described. The factor T/C given in per cent denotes the percentage increase in median survival time of the treated animals compared with the median survival time of the untreated control animals. In some cases, the cure rate, that is to say the number of cured animals in relation to the number of treated animals, is given in the Table, in parentheses after the factor T/C.
The experiment is discontinued as soon as the median survival time T/C of the treated animals has reached 300% of the median survival time of the untreated animals. In calculating the median survival time, the animals still alive at the end of the experiment are taken as being dead at the end of the experiment.

Data set [2] concerns sarcoma 180 cells. Kind of data set: subcutaneously transplanted sarcoma 180, intravenous therapy. It counts as in vivo, female mice. The following applies: 4 mg/kg i.v. as Tween 60 coprecipitate (1:20), twice weekly for 4 weeks, from 2nd week. How it is done:
In a further experiment, about 5×10^6 sarcoma 180 cells were subcutaneously transplanted into twelve female mice on day 0. From the 2nd week after the transplantation, six animals were given intravenous therapy with 4 mg/kg of dichlorobis(benzoylacetonato)titanium(IV) as a Tween® 60 coprecipitate (1:20) in aqueous solution, twice weekly for 4 weeks.

Data set [3] deals with Yoshida sarcoma cells. Kind of data set: subcutaneously transplanted Yoshida sarcoma, intravenous therapy. It counts as in vivo, female SD rats. How it is done: In a further experiment, about 5×10^6 Yoshida sarcoma cells were subcutaneously transplanted into female SD rats on day 0. In the second week, 4 mg/kg of dichlorobis(benzoylacetonato)titanium(IV) as a Tween® 60 coprecipitate (1:20) in aqueous solution were administered intravenously twice. […] The recidives were treated intravenously twice weekly with the original dose for four weeks.

Data set [4] has as its system testicular tumors, ovarian tumors, oat-cell carcinomas. The following applies: cited from earlier work.
Data set [5] concerns ascitic Ehrlich tumors. Conditions: mice; cited from earlier work.
Where [6] appears, read: 4 mg/kg i.v. as Tween 60 coprecipitate (1:20), twice in second week.

For the compound `CC(=O)C=C([O][Zr]([Br])([O]C(=CC(C)=O)c1ccccc1)[O]C(=CC(C)=O)c1ccccc1)c1ccccc1` [Bromotris(benzoylacetonato)zirconium(IV)], the entries for the “T/C (median survival time)” value in data set [1] (92 mg/kg i.p.), in data set [1] (209 mg/kg i.p.) and in data set [1] (471 mg/kg i.p.) were 300%, 297% and 187%, respectively.
Turning to `CC(=O)[CH-]C(=O)c1ccccc1.CC(=O)[CH-]C(=O)c1ccccc1.[Br-].[Br-].[Ti+4]` [Dibromobis(benzoylacetonato)titanium(IV)], the “T/C (median survival time)” value is listed as 103% in data set [1] (5 mg/kg i.p.); 115% in data set [1] (20 mg/kg i.p.); 288% in data set [1] (50 mg/kg i.p.); 300% in data set [1] (70 mg/kg i.p.); 300% in data set [1] (100 mg/kg i.p.); 300% in data set [1] (150 mg/kg i.p.). Further, the “T/C (median survival time)” value in data set [1] (215 mg/kg i.p.) is listed as 273%; in data set [1] (315 mg/kg i.p.), 300%. In addition, the “cure rate (cured animals/treated animals)” value in data set [1] (5 mg/kg i.p.) was 0/6; in data set [1] (20 mg/kg i.p.), 0/6; in data set [1] (50 mg/kg i.p.), 1/6; in data set [1] (70 mg/kg i.p.), 3/6; in data set [1] (100 mg/kg i.p.), 3/6; in data set [1] (150 mg/kg i.p.), 4/6. Besides, the “cure rate (cured animals/treated animals)” value in data set [1] (215 mg/kg i.p.) is reported as 1/6; in data set [1] (315 mg/kg i.p.), 5/6.
`CC(=O)C=C([O][Hf]([Cl])([Cl])[O]C(=CC(C)=O)c1ccccc1)c1ccccc1` [Dichlorobis(benzoylacetonato)hafnium(IV)]: the results for the “T/C (median survival time)” value in data set [1] (114 mg/kg i.p.), in data set [1] (172 mg/kg i.p.) and in data set [1] (246 mg/kg i.p.) were 130%, 267% and 300%, respectively.
Turning to `CC(=O)[CH-]C(=O)c1ccccc1.CC(=O)[CH-]C(=O)c1ccccc1.[Cl-].[Cl-].[Ti+4]` [Dichlorobis(benzoylacetonato)titanium(IV)], the “T/C (median survival time)” value in data set [1] (4 mg/kg i.p.) is listed as 118%; in data set [1] (16 mg/kg i.p.), 115%; in data set [1] (41 mg/kg i.p.), 291%; in data set [1] (57 mg/kg i.p.), 179%; in data set [1] (82 mg/kg i.p.), 300%; in data set [1] (123 mg/kg i.p.), 212%. The “T/C (median survival time)” value in data set [1] (177 mg/kg i.p.) stood at 251%; in data set [1] (259 mg/kg i.p.), 300%. Also, the “cure rate (cured animals/treated animals)” value in data set [1] (4 mg/kg i.p.) was 0/6; in data set [1] (16 mg/kg i.p.), 0/6; in data set [1] (41 mg/kg i.p.) it was 2/6; in data set [1] (57 mg/kg i.p.), 0/6; in data set [1] (82 mg/kg i.p.), 4/6; in data set [1] (123 mg/kg i.p.), 1/6. Besides, the “cure rate (cured animals/treated animals)” value in data set [1] (177 mg/kg i.p.) was 1/6; in data set [1] (259 mg/kg i.p.), 5/6. Further, in data set [2], the outcome of treatment is listed as “cured at the end of therapy”. The “recidives after three weeks (plum-sized)” value in data set [3] (setting [6]) is given as “two out of three animals”. In addition, the tumor regression result in data set [3] (setting [6]) is “The tumor regressed”. Further, the “cured animals after first treatment” value in data set [3] (4 mg/kg i.v. as Tween 60 coprecipitate (1:20), twice in second week, three animals) was “One animal was cured”. The “cured animals after treatment of recidives” value in data set [3] (original dose i.v. twice weekly for four weeks, two animals with recidives) is “Both animals were cured”.
On to `CC(=O)[CH-]C(=O)c1ccccc1.CC(=O)[CH-]C(=O)c1ccccc1.[F-].[F-].[Ti+4]` [Difluorobis(benzoylacetonato)titanium(IV)], for which the “T/C (median survival time)” value in data set [1] (4 mg/kg i.p.) is 97%; in data set [1] (15 mg/kg i.p.) it was 115%; in data set [1] (38 mg/kg i.p.), 209%; in data set [1] (52 mg/kg i.p.) it was 300%; in data set [1] (75 mg/kg i.p.) it was 154%; in data set [1] (113 mg/kg i.p.) it was 300%. Besides, the “T/C (median survival time)” value in data set [1] (162 mg/kg i.p.) and in data set [1] (238 mg/kg i.p.) was 300% each time. Moreover, the “cure rate (cured animals/treated animals)” value in data set [1] (4 mg/kg i.p.) is given as 0/6; in data set [1] (15 mg/kg i.p.) it was 0/6; in data set [1] (38 mg/kg i.p.), 1/6; in data set [1] (52 mg/kg i.p.), 4/6; in data set [1] (75 mg/kg i.p.), 0/6; in data set [1] (113 mg/kg i.p.), 3/6. Further, the “cure rate (cured animals/treated animals)” value is listed as 4/6 in data set [1] (162 mg/kg i.p.) and 2/6 in data set [1] (238 mg/kg i.p.).
As to `N.N.[Cl][Pt][Cl]` [cisplatin, cis-diamminedichloroplatinum(II), reference compound], the “T/C (median survival time)” value is 112% in data set [1] (1 mg/kg i.p.); 133% in data set [1] (2 mg/kg i.p.); 300% in data set [1] (3 mg/kg i.p.); 300% in data set [1] (5 mg/kg i.p.); 300% in data set [1] (8 mg/kg i.p.); 300% in data set [1] (13 mg/kg i.p.). In addition, in data set [1] (22 mg/kg i.p.), the “T/C (median survival time)” value was determined as 42%. Besides, the “cure rate (cured animals/treated animals)” value is 0/6 in data set [1] (1 mg/kg i.p.); 0/6 in data set [1] (2 mg/kg i.p.); 2/6 in data set [1] (3 mg/kg i.p.); 5/6 in data set [1] (5 mg/kg i.p.); 6/6 in data set [1] (8 mg/kg i.p.); 6/6 in data set [1] (13 mg/kg i.p.). Further, the “cure rate (cured animals/treated animals)” value in data set [1] (22 mg/kg i.p.) was 0/6. For the same compound, the “median survival time compared with untreated controls” value in data set [1] (about 20 mg/kg) is recorded as “shorter than that of the untreated control animals”. Besides, the cure of animals result in data set [1] (about 8 to 10 mg/kg) was “most of the animals are cured”. For the same compound, in data set [4] (after only a single therapeutic dose), the “renal damage and damage to hearing” value is on record as “found with considerable frequency”. Moreover, the nausea and retching entry in data set [4] was “long-lasting severe nausea”. Further, in data set [4] (testicular tumors, ovarian tumors, oat-cell carcinomas), the antitumor activity entry is listed as “extremly potent antitumor agent”.
Consider `CC(=O)C=C([O][Zr]([Br])([Br])[O]C(=CC(C)=O)c1ccccc1)c1ccccc1` [dibromobis(benzoylacetonato)zirconium(IV)], for which the “T/C (median survival time)” value in data set [1] (54 mg/kg i.p.) turned out to be 300%; in data set [1] (80 mg/kg i.p.), 300%; in data set [1] (126 mg/kg i.p.), 191%; in data set [1] (172 mg/kg i.p.), 172%; in data set [1] (247 mg/kg i.p.), 184%.
`CC(=O)C=C([O][Zr]([Cl])([Cl])[O]C(=CC(C)=O)c1ccccc1)c1ccccc1` [dichlorobis(benzoylacetonato)zirconium(IV)]: the “T/C (median survival time)” value in data set [1] (31 mg/kg i.p.) is on record as 234%; in data set [1] (46 mg/kg i.p.), 300%; in data set [1] (68 mg/kg i.p.), 300%; in data set [1] (97 mg/kg i.p.) it was 300%; in data set [1] (145 mg/kg i.p.) it was 193%; in data set [1] (208 mg/kg i.p.), 144%.
In the case of `[Cl-].[Cl-].[Hf+4].c1cc[cH-]c1.c1cc[cH-]c1` [hafnocene dichloride], in data set [5], the “action on ascitic Ehrlich tumors” value was “inhibiting action”.
For the compound `[Cl][Zr+2][Cl].c1cc[cH-]c1.c1cc[cH-]c1` [zirconocene dichloride], the “action on ascitic Ehrlich tumors” value in data set [5] is listed as “inhibiting action”.
For titanocene dichloride, the “action on ascitic Ehrlich tumors” value in data set [5] is reported as “inhibiting action”.
